Measured values from patent publication US20180203025A1, “HDL THERAPY MARKERS” (Cerenis Therapeutics Holding SA, priority 2014, published 2018).

How the values were obtained:
[1] = system: ABCG1 mRNA in mouse macrophages (J774); assay: ABCG1 gene expression (real-time PCR) in J774 macrophages; type: cell-based
Procedure: (§1) J774 were seeded on 6 well plates (300,000 cells/well) and loaded with oxidized-LDL without the use of ^3H-cholesterol. […] Gene expression was assayed using the protocols described in Sections 8.3.2 (RNA extraction); 8.3.4 (reverse transcription), and 8.3.5 (qPCR). ABCG1 gene expression was determined with Taqman probe Mm00437390.m1 according to the manufacturer's protocol. The reference gene used is HPRT1 (Taqman probe: Mm00446968.m1).
(§2) J774 were seeded on 6 well plates (300,000 cells/well) and loaded with oxidized-LDL. […] Gene expression was assayed using the protocols described in Sections 8.3.2 (RNA extraction); 8.3.4 (reverse transcription), and 8.3.5 (qPCR). SR-BI gene (Taqman probe Mm00450234.m1), ABCG1 (Taqman probe Mm00437390.m1), SREBP1 (Taqman probe Mm01138344.m1) and ABCA1 (Taqman probe Mm00442646.m1) expression were determined according to the manufacturer's protocol. The reference gene used is HPRT1 (Taqman probe: Mm00446968.m1).
as §2, with “(qPCR).” for “(qPCR). SR-BI gene (Taqman probe Mm00450234.m1),”, “Mm00437390.m1)” for “Mm00437390.m1), SREBP1 (Taqman probe Mm01138344.m1)”
as §2, with “(qPCR).” for “(qPCR). SR-BI gene (Taqman probe Mm00450234.m1),”, “Mm00437390.m1)” for “Mm00437390.m1), SREBP1 (Taqman probe Mm01138344.m1)”
(§3) J774 were seeded on 6 well plates (600,000 cells/well) in DMEM 10% FCS. […] Medium was removed and the macrophages were washed with DMEM. […] Gene expression was assayed using the protocols described in Sections 8.3.2 (RNA extraction); 8.3.4 (reverse transcription), and 8.3.5 (qPCR). ABCG1 (Taqman probe Mm00437390.m1), ABCA1 (Taqman probe Mm00442646.m1) and SR-BI (Taqman probe Mm00450234.m1) expression were determined according to the manufacturer's protocol. The reference gene used is HPRT1 (Taqman probe: Mm00446968.m1).
J774 were seeded on 6 well plates (300,000 cells/well) in DMEM 2.5% FCS. […] The next day, medium was replaced by fresh DMEM supplemented with or without ApoA-I (25 or 250 μg/mL) to initiate ApoA-I cholesterol efflux for 2 hours. The experiment was stopped at different time points: 1) J774 stopped before addition of ApoA-I, 2) J774+DMEM (passive efflux for 2 hours), 3) J774+ApoA-I (25 μg/mL) for 2 hours and 4) J774+ApoA-I (250 μg/mL) for 2 hours. The RNA was extracted with the RiboPure™ kit according to the manufacturer's protocol. Gene expression was assayed using the protocols described in Sections 8.3.2 (RNA extraction); 8.3.4 (reverse transcription), and 8.3.5 (qPCR). ABCA1 (Taqman probe Mm00442646.m1), ABCG1 (Taqman probe Mm00437390.m1), and SR-BI (Taqman probe Mm00450234.m1) expression were determined according to the manufacturer's protocol. The reference gene used is HPRT1 (Taqman probe: Mm00446968.m1).
This study examined the effect of HDL2 on ABCA1, ABCG1 and SR-BI mRNA levels in mouse macrophages. […] J774 were seeded on 6 well plates (300,000 cells/well) and loaded with oxidized-LDL. HDL2 (from 2.5 to 1000 μg/mL) were added for 6 hours on the macrophages and the RNA were extracted with the RiboPure™ kit according to the manufacturer's protocol. Gene expression was assayed using the protocols described in Sections 8.3.2 (RNA extraction); 8.3.4 (reverse transcription), and 8.3.5 (qPCR). ABCA1 (Taqman probe Mm00442646.m1), ABCG1 (Taqman probe Mm00437390.m1) and SR-BI (Taqman probe Mm00450234.m1) gene expression were determined according to the manufacturer protocols.

[2] = system: ABCA1 mRNA in mouse macrophages (J774); assay: ABCA1 gene expression (real-time PCR) in J774 macrophages; type: cell-based
Procedure: Use the same amount of cDNA for all samples (4 μl of 20 μL RT reaction on 0.5 or 1 μg RNA). For each sample (to be run in triplicate), sample the following into a nuclease-free 1.5-mL microcentrifuge tube (add the volume for 2 samples more to calculate the final volume of PCR reaction mix): 2× TaqMan® Gene Expression Master Mix: 10 μl; 20× TaqMan® Gene Expression Assay: 1 μl; Nuclease free H2O: 5 μl. Cap the tube and invert it several times to mix the reaction components. Centrifuge the tube briefly.
as §1, with “on 6×” for “on 6”, “(qPCR). ABCA1” for “(qPCR). ABCG1”, “probe Mm00442646.m1” for “probe Mm00437390.m1”
as §2
This study examined the kinetics of decreasing the mRNA level of ABCA1 in J774 macrophages. J774 were seeded on 6 well plates (300,000 cells/well) and loaded with oxidized-LDL. […] Gene expression was assayed using the protocols described in Sections 8.3.2 (RNA extraction); 8.3.4 (reverse transcription), and 8.3.5 (qPCR). ABCA1 (Taqman probe Mm00442646.m1) expression was determined according to the manufacturer's protocol. The reference gene used is HPRT1 (Taqman probe: Mm00446968.m1).
as §2, with “(qPCR).” for “(qPCR). SR-BI gene (Taqman probe Mm00450234.m1),”, “Mm00437390.m1)” for “Mm00437390.m1), SREBP1 (Taqman probe Mm01138344.m1)”
as §2, with “(qPCR).” for “(qPCR). SR-BI gene (Taqman probe Mm00450234.m1),”, “Mm00437390.m1)” for “Mm00437390.m1), SREBP1 (Taqman probe Mm01138344.m1)”
as §3
J774 were seeded on 6 well plates (300,000 cells/well) in DMEM 2.5% FCS. […] The next day, medium was replaced by fresh DMEM supplemented with or without ApoA-I (25 or 250 μg/mL) to initiate ApoA-I cholesterol efflux for 2 hours. The experiment was stopped at different time points: 1) J774 stopped before addition of ApoA-I, 2) J774+DMEM (passive efflux for 2 hours), 3) J774+ApoA-I (25 μg/mL) for 2 hours and 4) J774+ApoA-I (250 μg/mL) for 2 hours. The RNA was extracted with the RiboPure™ kit according to the manufacturer's protocol.

[3] = Study O, 0.03 to 30 mM, 6 hours
[4] = Study G, 250 μg/mL, 6 hours, without cAMP
[5] = Study G, overnight cAMP 300 μM, then 250 μg/mL 6 hours
[6] = Study I, 6 hours, presence or absence of cAMP
[7] = Study J, 24 hours treatment, 250 μg/mL
[8] = Study J, after 24 hours at 250 μg/mL

OC[C@H]1O[C@@H]2O[C@H]3[C@H](O)[C@@H](O)[C@@H](O[C@H]4[C@H](O)[C@@H](O)[C@@H](O[C@H]5[C@H](O)[C@@H](O)[C@@H](O[C@H]6[C@H](O)[C@@H](O)[C@@H](O[C@H]7[C@H](O)[C@@H](O)[C@@H](O[C@H]8[C@H](O)[C@@H](O)[C@@H](O[C@H]1[C@H](O)[C@H]2O)O[C@@H]8CO)O[C@@H]7CO)O[C@@H]6CO)O[C@@H]5CO)O[C@@H]4CO)O[C@@H]3CO [β-cyclodextrin, reference compound]
ABCG1 mRNA level [1, 3]: dose-dependent decrease
ABCA1 mRNA level [2, 3]: dose-dependent decrease

CER-001: engineered recombinant human apolipoprotein A-I HDL with sphingomyelin and DPPG; protein-to-phospholipid ratio 1:2.7, 97% Sph and 3% DPPG
ABCG1 mRNA expression ([1]; Study B, oxidized-LDL loaded, 25, 250 and 1000 μg/mL, 6 hours): decreased the ABCG1 mRNA at all the doses
ABCG1 mRNA level [1, 4]: decreased
ABCG1 mRNA level (RQ) [1, 5]: 1
dose of maximum decrease of ABCG1 mRNA level ([1]; Study I, 6 hours): around 15 μg/mL
doses at which decrease of ABCG1 mRNA level was observed [1, 6]: 4 to 6 µg/mL
ABCG1 mRNA level [1, 7]: decrease
time for ABCG1 mRNA level to return to baseline after removal [1, 8]: 8 h
ABCA1 mRNA expression ([2]; Study A, oxidized-LDL loaded, 25, 250 and 1000 μg/mL, 6 hours): decreased the ABCA1 mRNA at all the doses
dose for diminishing half of the ABCA1 level ([2]; Study E, 6 hours): around 7.5 μg/mL
time to decrease half of the ABCA1 mRNA level ([2]; Study F, 25 or 250 μg/mL): 4 h
ABCA1 mRNA level [2, 4]: decreased
ABCA1 mRNA level (RQ) [2, 5]: 1
effect of cAMP activation on CER-001 dose decreasing ABCA1 ([2]; Study I): did not change the sufficient dose of CER-001
dose of maximum decrease of ABCA1 mRNA level ([2]; Study I, 6 hours): around 15 μg/mL
doses at which decrease of ABCA1 mRNA level was observed [2, 6]: 4 to 6 µg/mL
ABCA1 mRNA level [2, 7]: decrease
time for ABCA1 mRNA level to return to baseline after removal [2, 8]: more than 8 hours
ABCA1 mRNA level ([2]; Study L, overnight pre-incubation at 250 μg/mL): strongly decreased the ABCA1 mRNA level
